Assay results as given in patent US10501479B2, “Benzenesulfonyl-asymmetric ureas and medical uses thereof” (HELSINN HEALTHCARE SA, priority 2016, dated 2019).
Several values for one entry are separate records, joined by “and”; a condition that tells them apart may be missing. Identical values can stand only once. Like-named read-outs stand apart in the source and are kept apart here.

Key:
[1] = molecular target: T1, recombinant human ghrelin receptor (HEK293/GRLN) (Homo sapiens, UniProt Q92847); test: Ghrelin inverse agonist potency (EC50) with IP-1 (IP-One HTRF) assay; format: cell-based; details: IP-1 assay
T1 construct: expressed in transfected cells
T1 sequence (Q92847 whole entry): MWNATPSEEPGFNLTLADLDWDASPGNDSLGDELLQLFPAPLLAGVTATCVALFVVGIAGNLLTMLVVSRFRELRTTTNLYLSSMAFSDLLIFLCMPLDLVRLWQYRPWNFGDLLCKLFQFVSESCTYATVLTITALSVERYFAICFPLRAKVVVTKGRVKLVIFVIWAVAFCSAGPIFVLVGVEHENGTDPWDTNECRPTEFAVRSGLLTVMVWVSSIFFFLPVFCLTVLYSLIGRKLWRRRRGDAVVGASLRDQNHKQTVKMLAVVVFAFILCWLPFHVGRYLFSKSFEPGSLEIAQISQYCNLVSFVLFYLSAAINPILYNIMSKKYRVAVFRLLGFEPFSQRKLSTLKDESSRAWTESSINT
Summary of the method: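 HEK293/GRLN cells were seeded 18-22 hours before the test, then exposed to compound in stimulation buffer for 1 hour at 37° C, 5% CO2. IP-1 was detected by IP-One HTRF (IP1-d2 plus Tb-cryptate, 1 hour RT), reading 620 and 665 nm; the inverse agonist EC50 was derived from this.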

[2] = Plasma protein binding (PPB), mouse; format: in vitro ADME
[3] = Animal PK study in mouse via i.v., p.o. and s.c. administration; format: in vivo; details: for Vd / clearance / half-life: plasma; for clearance: read-out: PK CL i.v.
Procedure: All treated animals received a single dose of a test compound (either through i.v., p.o., or s.c. administration) according to the regimen shown in the following table:
For oral dose groups, appropriate amount of test compound was prepared in the following formulation carrier: 1% DMSO (increase to 5% maximum if necessary) and 0.5% Methycellulose. Each mouse or rat received by oral gavage 10 mL/kg of the formulation mixture.
For i.v. and s.c dose groups, appropriate amount of test compound was dissolved in 1% DMSO (increase to 5% maximum if necessary), 99% of 20% HP-β-Cyclodextron (w/v). The pH was adjusted accordingly. Each mouse or rat received 5 mL/kg of the formulation mixture. i.v. dose was administered by tail vein injection. Subcutaneous injection was administered over the shoulders, into the loose skin over the neck. At designated time points (e.g., i.v. and s.c.: 0.083, 0.25, 0.5, 1, 2, 4, 8 and 24 hrs; p.o.: 0.25, 0.5, 1, 2, 4, 8 and 24 hrs), systemic samples of blood (50 μL in mouse or 500 μL in rat) were collected by puncture (submandibular vein in mouse or jugular vein in rat) into vacutainers containing EDTA-K2 as anti-coagulant. The blood was centrifuged at 6000 rpm for 8 min at 4° C. to obtain plasma. All plasma samples were stored at −20° C. All plasma samples were added to acetonitrile for protein precipitation and quantitatively analyzed by LC-MS/MS.

[4] = molecular target: T2, GHSR-1a (HEK293/GHSR1a cell line) (Homo sapiens, UniProt Q92847); test: Ghrelin agonist potency (EC50) with calcium FLIPR assay; format: cell-based; details: HEK293/GHSR1a, read-out: Activity EC50/EMax: EC50 (ghrelin agonist potency)
T2 construct: expressed in transfected cells; host or cells: HEK293/GHSR1a cell line
T2 sequence (Q92847 whole entry): as above
Summary of the method: (§1)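 Cells seeded 24 h before the run were loaded with calcium dye for 30-60 min at room temperature or 37° C. For agonism, compound was added at t=20 sec and the calcium signal followed for 2 minutes. For antagonism, compound plus ghrelin (10 nM) went on at t=20 sec, and IC50 reflected the drop in ghrelin response.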

[5] = Metabolic stability in mouse liver microsomes; format: in vitro ADME
Summary of the method: (§2)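 Test compounds were incubated with liver microsomes in 100 mM potassium phosphate buffer, pH 7.4, at 37 °C, with reactions started by an NADPH regenerating system after a 5 min preincubation. Samples taken at 0, 10, 30 and 90 min were quenched cold, centrifuged, and parent remaining was quantified by LC-MS/MS.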

[6] = molecular target: T2, GHSR-1a (HEK293/GHSR1a cell line); test: Ghrelin antagonist potency (IC50) with calcium FLIPR assay, ghrelin 10 nM; format: cell-based
Summary of the method: as §1

[7] = Plasma protein binding (PPB), human; format: in vitro ADME; details: read-out: PPB (H) (converted)
[8] = Metabolic stability in human liver microsomes; format: in vitro ADME
Summary of the method: as §2

[9] = Metabolic stability in rat liver microsomes; format: in vitro ADME
Procedure: (§3) Metabolic Stability Study
(§4) The metabolic stability of compounds in human, dog, rat and mouse liver microsomes was performed according the experimental conditions reported below:
(§5) • a) Prepare the following 5 stock solutions: • 1. Test compound stock solutions: dilute 10 mM solution of dextromethorphan (Dtr) in DMSO, 10 mM solution of diphenhydramine (DPA) in DMSO, 10 mM solution of omeprazole (Ome) in DMSO, 10 mM solution of verapamil (Ver) in DMSO, and 10 mM of an inverse agonist compound in DMSO to 0.25 mM solution each with acetonitrile/water (70/30). • 2. Buffer: 100 mM potassium phosphate Buffer (PBS) at pH 7.4 • 3. Liver microsomes (20 mg/ml): Thaw in 37° C. water bath quickly • 4. 2000 μL: of NADPH regenerating system (1.3 mM). Place this system on ice before use:
(§6) • 5. […] The test compound concentration in the wells, measured by LC-MS/MS, represents the concentration at time=0. • f) To determine the test compound concentration when t≠0, pre-incubate the NADPH regenerating system and the incubation plate containing the remaining 320 μL of incubation mixture (microsomes protein and test compound) for 5 minutes at 37° C. • g) Start the incubation reaction by adding 80 μL NADPH regenerating system to each well containing the remaining 320 μL incubation mixture. • h) After 10 min., 30 min., and 90 min. of incubation at 37° C., transfer 100 μL of the incubation mixture (microsomes protein, test compound, and NADPH) into the wells of a stop plate pre-filled with 300 μL of the cold quench solution. Shake well. • i) Centrifuge the stop plate at 5000×g for 10 minutes. Collect and dilute the supernatant 3 times with distilled water. Sample and analyze the test compound concentration for all the wells by LC-MS/MS. Animal PK Studies via i.v. (intravenous), p.o. (orally) and s.c. (subcutaneous) administrations

[10] = Metabolic stability in dog liver microsomes; format: in vitro ADME
Procedure: as §3, §4, §5, §6

[11] = HEK293/GRLN, read-out: Activity EC50 (ghrelin inverse agonist potency)
[12] = iv, 5 mg/kg, i.v., read-out: PK t1/2 i.v.
[13] = po, 10 mg/kg, p.o., read-out: PK t1/2 p.o.
[14] = HEK293/GHSR1a, ghrelin 10 nM, read-out: Activity IC50 (ghrelin antagonist potency)
[15] = inverse agonist potency, read-out: EC50 (Activity)
[16] = ghrelin antagonist potency, read-out: IC50 (Activity)

Compound | EC50 [1, 11] | fraction unbound [2] | PK F [3] | EC50 [4] | Metabolic Stability Study M = mouse [5] | IC50 [6, 14] | fraction unbound [7] | Metabolic Stability Study H = human [8] | Metabolic Stability Study R = rat [9] | Metabolic Stability Study D = dog [10] | further results
COc1ccc([C@@H](C)NC(=O)Nc2ccc(S(=O)(=O)Cc3ccc4c(c3)CCN(C)C4)cc2)c(Cl)c1Cl [H1417, (R)-1-(1-(2,3-dichloro-4-methoxyphenyl)ethyl)-3-(4-(((2-methyl-1,2,3,4-tetrahydroisoquinolin-6-yl)methyl)sulfonyl)phenyl)urea] | 0.00973 µM | 0.0012 | 11.80% | > 30 µM | 53.4 µL/min/mg | 0.045 µM | 0.0015 | 48.9 µL/min/mg | – | – | PK CL p.o. ([3]; p.o.): 226.8 mL/min/kg; PK Vd p.o. ([3]; p.o.): 24.97 L/kg; Vd ([3]; iv, 5 mg/kg): 4.74 L/kg; clearance ([3]; iv, 5 mg/kg, i.v.): 26.2 mL/min/kg; half-life [3, 12]: 2.09 h; half-life [3, 13]: 1.27 h
COc1cc(S(=O)(=O)Cc2ccc3c(c2)CC(C)NC3)ccc1NC(=O)NC(C)c1ccccc1 (stereo not shown) [H1441, 1-(2-methoxy-4-(((3-methyl-1,2,3,4-tetrahydroisoquinolin-6-yl)methyl)sulfonyl)phenyl)-3-(1-phenylethyl)urea] | 0.0043 µM and 0.0033 µM | 0.045 | – | > 30 µM | 16.4 µL/min/mg | 0.0149 µM and 0.0404 µM | 0.0245 | 17.3 µL/min/mg | – | – | –
COc1cc(S(=O)(=O)Cc2ccc3c(c2)CNC3)ccc1NC(=O)NC(C)c1ccccc1.Cl (stereo not shown) [H1383, 1-(4-((isoindolin-5-ylmethyl)sulfonyl)-2-methoxyphenyl)-3-(1-phenylethyl)urea] | 0.00201 µM | – | – | > 30 µM | 91.9 µL/min/mg | 0.0119 µM | – | 21 µL/min/mg | 48.2 µL/min/mg | 27.8 µL/min/mg | –
C[C@H](NC(=O)Nc1ccc2c(c1)CC(c1ccc3c(c1)CNC3)S2(=O)=O)c1ccccc1 (stereo partly drawn) [H1264, 1-(2-(isoindolin-5-yl)-1,1-dioxido-2,3-dihydrobenzo[b]thiophen-5-yl)-3-((S)-1-phenylethyl)urea] | – | 0.185 | 0.36% | – | H < 10 M < 10 R = not reported D = not reported μL/min/mg | 0.0044 µM | 0.221 | H < 10 M < 10 R = not reported D = not reported μL/min/mg | – | – | PK Vd p.o. ([3]; p.o.): 627.9 L/kg; Vd ([3]; iv, 5 mg/kg): 4.83 L/kg; clearance ([3]; iv, 5 mg/kg, i.v.): 48.2 mL/min/kg; half-life [3, 12]: 1.16 h; half-life [3, 13]: 0.64 h
COc1cc(S(=O)(=O)Cc2ccc3c(c2)CNC3)ccc1NC(=O)NC(C)c1cccc2ccccc12.O=C(O)C(F)(F)F (stereo not shown) [H1419, 1-(4-((isoindolin-5-ylmethyl)sulfonyl)-2-methoxyphenyl)-3-(1-(naphthalen-1-yl)ethyl)urea] | 0.0005 µM | 0.0031 | – | > 30 µM | 45.1 µL/min/mg | 0.0044 µM | 0.0041 | 33.1 µL/min/mg | – | – | –
CC(C)(N)Cc1ccc(NS(=O)(=O)c2ccc(NC(=O)NCc3ccccc3)cc2)cc1.Cl [H0993, N-(4-(2-amino-2-methylpropyl)phenyl)-4-(3-benzylureido) benzenesulfonamide] | – | – | 0.4% | – | 14.3 µL/min/mg | – | – | 18.5 µL/min/mg | 15.1 µL/min/mg | < 10 µL/min/mg | EC50 [1, 15]: 0.021 µM; PK CLiv ([3]; i.v.): 35.8 mL/min/kg; PK Vdiv ([3]; i.v.): 4.31 L/kg; PK t1/2iv ([3]; i.v.): 1.39 h; PK CLpo ([3]; p.o.): 7302 mL/min/kg; PK Vdpo ([3]; p.o.): 2550 L/kg; PK t1/2po ([3]; p.o.): 4.03 h; IC50 [6, 16]: 0.288 µM
CC(C)(N)Cc1ccc(CS(=O)(=O)c2ccc(NC(=O)NCc3cccc(Cl)c3Cl)cc2)cc1 [H0996, 1-(4-((4-(2-amino-2-methylpropyl)benzyl)sulfonyl)phenyl)-3-(2,3-dichlorobenzyl)urea] | – | – | – | – | 125.4 µL/min/mg | – | – | 27.5 µL/min/mg | 77.8 µL/min/mg | < 10 µL/min/mg | EC50 [1, 15]: 0.064 µM; IC50 [6, 16]: 0.461 µM
CC(NC(=O)Nc1ccc(S(=O)(=O)Cc2ccc3c(c2)CNC3)cc1)c1ccccc1Cl.Cl (stereo not shown) [H1261, 1-(1-(2-chlorophenyl)ethyl)-3-(4-((isoindolin-5-ylmethyl)sulfonyl)phenyl)urea] | 0.0022 µM | 0.019 | – | > 30 µM | 23 µL/min/mg | 0.00157 µM | 0.045 | 48.8 µL/min/mg | – | – | –
COc1cc(S(=O)(=O)Cc2ccc3c(c2)CNC3)ccc1NC(=O)NC(C)c1ccccc1F.O=C(O)C(F)(F)F (stereo not shown) [H1420, 1-(1-(2-fluorophenyl)ethyl)-3-(4-((isoindolin-5-ylmethyl)sulfonyl)-2-methoxyphenyl)urea] | 0.001 µM | 0.0461 | – | > 30 µM | 50.6 µL/min/mg | 0.022 µM | 0.028 | 17.4 µL/min/mg | – | – | –
